Laboratory results from patent US8008291B2 (Mimetica Pty Ltd, priority 2008, dated 2011).
pIC50: −log10 of the molar value.

Target: T1, human MC5R (hMC5R) (Homo sapiens, UniProt P33032)
T1 construct: purchased Perkin Elmer RBXMC5M400UA
Test: Human MC5R radioligand binding assay (membranes, [125I] NDP-MSH displacement)
Conditions: hMC5R binding; tested as trifluoroacetate or hydrochloride salts, or free bases; read-out: MC5R radioligand IC50
Method in brief: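 Displacement of [125I]NDP-MSH (radioiodinated in house, HPLC-purified) from hMC5R membranes by test compound measured after 1 hr incubation at 37° C.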

T1 sequence (P33032 whole entry): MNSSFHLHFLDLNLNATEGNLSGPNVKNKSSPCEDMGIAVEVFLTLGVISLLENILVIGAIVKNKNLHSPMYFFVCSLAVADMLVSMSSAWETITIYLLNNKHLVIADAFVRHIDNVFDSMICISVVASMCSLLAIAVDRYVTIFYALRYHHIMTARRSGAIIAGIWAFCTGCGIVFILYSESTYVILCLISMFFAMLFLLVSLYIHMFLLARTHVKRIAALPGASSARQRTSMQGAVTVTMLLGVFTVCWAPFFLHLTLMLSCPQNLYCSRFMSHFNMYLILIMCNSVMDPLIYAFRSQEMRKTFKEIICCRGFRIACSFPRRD

Row | Structure (SMILES) | pIC50
1 | CC(C)[C@H](CN1CC[C@@H](CNC(=O)c2ccc3ccccc3c2)N[C@@H](CCN2CCCCC2)C1=O)c1ccccc1 [Compound 395, N-(((3S,5S)-1-((S)-3-methyl-2-phenylbutyl)-2-oxo-3-(2-(piperidin-1-yl)ethyl)-1,4-diazepan-5-yl)methyl)-2-naphthamide] | > 7.00
2 | O=C(NC[C@@H]1CCN(CC(c2ccccc2)c2ccccc2)C(=O)[C@H](CCN2CCCCC2)N1)c1ccc(C(F)(F)F)cc1 [Compound 434, N-(((3S,5S)-1-(2,2-diphenylethyl)-2-oxo-3-(2-(piperidin-1-yl)ethyl)-1,4-diazepan-yl)methyl)-4-(trifluoromethyl)benzamide] | > 7.00
3 | NCC[C@@H]1N[C@H](CNC(=O)c2ccc3cc(Cl)ccc3c2)CCN(Cc2cc(Cl)cc(Cl)c2)C1=O [Compound 466, N-(((3S,5S)-3-(2-aminoethyl)-1-(3,5-dichlorobenzyl)-2-oxo-1,4-diazepan-5-yl)methyl)-6-chloro-2-naphthamide] | > 7.00
4 | CCCOC(=O)N[C@@H](Cc1ccc2ccccc2c1)[C@@H]1CCN(CC(c2ccccc2)c2ccccc2)C(=O)[C@H](CCCNC(=N)N)N1 [Compound 83, propyl (S)-1-((3S,5S)-1-(2,2-diphenylethyl)-3-(3-guanidinopropyl)-2-oxo-1,4-diazepan-5-yl)-2-(naphthalen-2-yl)ethylcarbamate] | > 6.00
5 | Cc1cc(F)cc(CN2CC[C@@H](CNC(=O)c3ccc4ccccc4c3)N[C@@H](CCCN)C2=O)c1 [Compound 321, N-(((3S,5S)-3-(3-aminopropyl)-1-(3-fluoro-5-methylbenzyl)-2-oxo-1,4-diazepan-5-yl)methyl)-2-naphthamide] | > 5.00
6 | CCCOC(=O)N[C@H](Cc1ccc2ccccc2c1)[C@@H]1CCN(CC(c2ccccc2)c2ccccc2)C(=O)[C@H](CCCNC(=N)N)N1 [Compound 87, propyl (R)-1-((3S,5S)-1-(2,2-diphenylethyl)-3-(3-guanidinopropyl)-2-oxo-1,4-diazepan-5-yl)-2-(naphthalen-2-yl)ethylcarbamate] | > 5.00
7 | C#Cc1cc(C#C)cc(CN2CC[C@@H](CNC(=O)c3ccc4ccccc4c3)N[C@@H](CCCN)C2=O)c1 [Compound 360, N-(((3S,5S)-3-(3-aminopropyl)-1-(3,5-diethynylbenzyl)-2-oxo-1,4-diazepan-5-yl)methyl)-2-naphthamide] | > 6.00
8 | CC(C)NCC[C@@H]1N[C@H](CNC(=O)c2ccc(Cl)c(Cl)c2)CCN(Cc2cc(Cl)cc(Cl)c2)C1=O [Compound 439, 3,4-dichloro-N-(((3S,5S)-1-(3,5-dichlorobenzyl)-3-(2-(isopropylamino)ethyl)-2-oxo-1,4-diazepan-5-yl)methyl)benzamide] | > 7.00
9 | CCC(CC)CN1CC[C@@H](CNC(=O)c2ccc3cc(Br)ccc3c2)N[C@@H](CCN2CCCCC2)C1=O [Compound 374, 6-bromo-N-(((3S,5S)-1-(2-ethylbutyl)-2-oxo-3-(2-(piperidin-1-yl)ethyl)-1,4-diazepan-5-yl)methyl)-2-naphthamide] | > 7.00
10 | Cc1ccc(/C=C/C(=O)NC[C@@H]2CCN(CC(c3ccccc3)c3ccccc3)C(=O)[C@H](CCN3CCCCC3)N2)cc1 [Compound 285, (E)-N-(((3S,5S)-1-(2,2-diphenylethyl)-2-oxo-3-(2-(piperidin-1-yl)ethyl)-1,4-diazepan-5-yl)methyl)-3-p-tolylacrylamide] | > 7.00
11 | CC[C@@H](CN1CC[C@@H](CNC(=O)c2ccc3cc(Cl)ccc3c2)N[C@@H](CCN2CCCCC2)C1=O)C(C)C [Compound 471, 6-chloro-N-(((3S,5S)-1-((R)-2-ethyl-3-methylbutyl)-2-oxo-3-(2-(piperidin-1-yl)ethyl)-1,4-diazepan-5-yl)methyl)-2-naphthamide] | > 7.00
12 | CCCCC(CC)C(=O)NC[C@@H]1CCN(CC(c2ccccc2)c2ccccc2)C(=O)[C@H](CCCN)N1 (stereo partly drawn) [Compound 221, N-(((3S,5S)-3-(3-aminopropyl)-1-(2,2-diphenylethyl)-2-oxo-1,4-diazepan-5-yl)methyl)-2-ethylhexanamide] | > 5.00

Second part, the compound after the results:

Row | pIC50 | Structure (SMILES)
13 | > 6.00 | COC(CN1CC[C@@H](CNC(=O)c2ccc3ccccc3c2)N[C@@H](CCCNC(=N)N)C1=O)c1ccccc1 (stereo partly drawn) [Compound 289, N-(((3S,5S)-3-(3-guanidinopropyl)-1-(2-methoxy-2-phenylethyl)-2-oxo-1,4-diazepan-5-yl)methyl)-2-naphthamide]
14 | > 7.00 | CC[C@H](CN1CC[C@@H](CNC(=O)c2ccc(Cl)c(Cl)c2)N[C@@H](CCCN2CCCCC2)C1=O)c1ccccc1 [Compound 418, 3,4-dichloro-N-(((3S,5S)-2-oxo-1-((S)-2-phenylbutyl)-3-(3-(piperidin-1-yl)propyl)-1,4-diazepan-5-yl)methyl)benzamide]
15 | > 5.00 | N=C(N)NCCC[C@@H]1N[C@H](CNC(=O)c2ccc3ccccc3c2)CCN(CC2c3ccccc3-c3ccccc32)C1=O [Compound 227, N-(((3S,5S)-1-((9H-fluoren-9-yl)methyl)-3-(3-guanidinopropyl)-2-oxo-1,4-diazepan-5-yl)methyl)-2-naphthamide]
16 | > 7.00 | CC[C@H](CN1CC[C@@H](CNC(=O)c2ccc(Cl)c(Cl)c2)N[C@@H](CCN2CCCCC2)C1=O)c1ccccc1 [Compound 410, 3,4-dichloro-N-(((3S,5S)-2-oxo-1-((S)-2-phenylbutyl)-3-(2-(piperidin-1-yl)ethyl)-1,4-diazepan-5-yl)methyl)benzamide]
17 | > 5.00 | CC(CN1CC[C@@H](CNC(=O)c2ccc3ccccc3c2)N[C@@H](CCN)C1=O)c1ccc(Cl)cc1 (stereo partly drawn) [Compound 422, N-(((3S,5S)-3-(2-aminoethyl)-1-(2-(4-chlorophenyl)propyl)-2-oxo-1,4-diazepan-5-yl)methyl)-2-naphthamide]
18 | > 6.00 | CC(CN1CC[C@@H](CNC(=O)c2ccc3ccccc3c2)N[C@@H](CCCNC(=N)N)C1=O)(c1ccccc1)c1ccccc1 [Compound 200, N-(((3S,5S)-1-(2,2-diphenylpropyl)-3-(3-guanidinopropyl)-2-oxo-1,4-diazepan-5-yl)methyl)-2-naphthamide]
19 | > 8.00 | CC[C@H](CN1CC[C@@H](CNC(=O)c2ccc(Cl)c(Cl)c2)N[C@@H](CCN2CCCC[C@@H]2C)C1=O)c1ccccc1 [Compound 453, 3,4-dichloro-N-(((3S,5S)-3-(2-((S)-2-methylpiperidin-1-yl)ethyl)-2-oxo-1-((S)-2-phenylbutyl)-1,4-diazepan-5-yl)methyl)benzamide]
20 | > 7.00 | CC1CC(C)CC(CN2CC[C@@H](CNC(=O)c3ccc4ccccc4c3)N[C@@H](CCCNC(=N)N)C2=O)C1 (stereo partly drawn) [Compound 298, N-(((3S,5S)-1-((3,5-dimethylcyclohexyl)methyl)-3-(3-guanidinopropyl)-2-oxo-1,4-diazepan-5-yl)methyl)-2-naphthamide]
21 | > 7.00 | O=C(NC[C@@H]1CCN(CC(c2ccccc2)c2ccccc2)C(=O)[C@H](CCN2CCOCC2)N1)c1ccc2cc(Cl)ccc2c1 [Compound 514, 6-chloro-N-(((3S,5S)-1-(2,2-diphenylethyl)-3-(2-morpholinoethyl)-2-oxo-1,4-diazepan-5-yl)methyl)-2-naphthamide]
22 | > 7.00 | CC[C@H](CN1CC[C@@H](CNC(=O)c2ccc3cc(Cl)ccc3c2)N[C@@H](CCNC(=N)N)C1=O)c1ccccc1 [Compound 457, 6-chloro-N-(((3S,5S)-3-(2-guanidinoethyl)-2-oxo-1-((S)-2-phenylbutyl)-1,4-diazepan-5-yl)methyl)-2-naphthamide]
